Read-outs that look alike come from different tables or passages of the source.
Columns and labels:
DLD1 WT cells = assay: 7-day cell viability assay (CellTiter-Glo), DLD1 parental (WT); type: cell-based, human; settings: n=2
Description: (§1) Cell lines DLD1 WT and DLD1 BRCA2 (−/−) (Horizon Discovery Cat No. HD PAR-008 and HD-105-007) were plated in 384-well culture plates at seeding densities of 100cells/50 ul/well and 200 cells/50 uL/well respectively. The seeding densities are pre-determined from the growth curve kinetics performed to ensure log linear phase of cell growth for these 2 cell lines. These assay plates are then placed in the incubator at 37° C., 5% CO2, relative humidity >90% for a few hours before addition of test compounds. Compounds are dispensed using the Tecan HPD300 or Echo based on the plate map in the appropriate wells of the 384-well plates. The cells are treated with nine-point dose response with 3-fold serial dilutions of test compounds starting at 10 uM top concentration. After addition of the test compounds, the plates are incubated at 37° C., 5% CO2, relative humidity >90% for 7 days. CellTiter-Glo (Promega Cat. No. G7573), ATP detection reagent is prepared according to manufacturer's specifications. Cell assay plates are removed from incubator and bring to room temperature (RT) by letting them sit at bench top for at least 15 min. Using the MultiDrop liquid handler or a multichannel pipette, 35 μL/well of CTG is added and the plates are then placed shakes for 5 seconds, RT.

DLD1 BRCA2 (−/−) cells = assay: 7-day cell viability assay (CellTiter-Glo), DLD1 BRCA2 (−/−); type: cell-based, human; settings: n=2, read-out: Viability IC50 (uM) DLD1 BRCA2 null
Description: as §1

[1] = target: biotinylated Avi-POLθ[2-894] (Homo sapiens (Human), UniProt O75417); assay: POLθ ATPase assay (ADP-Glo); settings: n=2, read-out: Biochemical ATPase ADPGlo IC50
[2] = Homo sapiens, DLD-1, 168 h, 7-day CellTiter-Glo
[3] = Homo sapiens, DLD-1, 168 h, 7-day viability

biotinylated Avi-POLθ[2-894], sequence (O75417 2-894): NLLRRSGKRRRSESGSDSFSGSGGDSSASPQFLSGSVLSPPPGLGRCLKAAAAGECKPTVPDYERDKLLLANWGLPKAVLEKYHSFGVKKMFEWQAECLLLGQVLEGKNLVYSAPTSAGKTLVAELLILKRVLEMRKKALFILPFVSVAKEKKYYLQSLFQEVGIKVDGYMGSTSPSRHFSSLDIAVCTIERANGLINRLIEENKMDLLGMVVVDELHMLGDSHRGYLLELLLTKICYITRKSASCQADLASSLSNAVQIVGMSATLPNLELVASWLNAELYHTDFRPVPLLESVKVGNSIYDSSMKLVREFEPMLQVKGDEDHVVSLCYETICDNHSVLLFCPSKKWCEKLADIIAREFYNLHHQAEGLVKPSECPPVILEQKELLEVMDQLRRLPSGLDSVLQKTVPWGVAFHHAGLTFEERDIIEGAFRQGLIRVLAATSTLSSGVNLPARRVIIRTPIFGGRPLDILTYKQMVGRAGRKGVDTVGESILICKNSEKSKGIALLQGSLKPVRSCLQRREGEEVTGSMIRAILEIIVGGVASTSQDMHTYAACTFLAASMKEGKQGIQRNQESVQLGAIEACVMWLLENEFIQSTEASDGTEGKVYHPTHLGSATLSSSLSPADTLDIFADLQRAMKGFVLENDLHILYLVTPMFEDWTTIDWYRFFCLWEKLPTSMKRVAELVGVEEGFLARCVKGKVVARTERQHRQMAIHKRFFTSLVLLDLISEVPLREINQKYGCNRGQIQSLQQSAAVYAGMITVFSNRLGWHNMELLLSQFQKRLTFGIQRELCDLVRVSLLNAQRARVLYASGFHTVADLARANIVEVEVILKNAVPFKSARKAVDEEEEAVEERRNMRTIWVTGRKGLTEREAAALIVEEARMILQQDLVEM

IC50 (DLD1 BRCA2 (−/−) cells; [2])	Molecule	IC50 (DLD1 WT cells; [2])	other results
0.001 to 0.1 µM	COc1cnc(Cl)cc1-c1cc(C)ncc1C(=O)Nc1nc2c(s1)CN(C(=O)c1nc(Cl)c(C(F)F)cc1C)C2 [Example 940, 2′-chloro-N-(5-(6-chloro-5-(difluoromethyl)-3-methylpicolinoyl)-5,6-dihydro-4H-pyrrolo[3,4-d]thiazol-2-yl)-5′-methoxy-6-methyl-[4,4′-bipyridine]-3-carboxamide]	≥ 10 µM	–
–	2′-chloro-N-(5-(5-chloropyrimidine-2-carbonyl)-5,6-dihydro-4H-pyrrolo[3,4-d]thiazol-2-yl)-5′-(difluoromethoxy)-6-methyl-[4,4′-bipyridine]-3-carboxamide [Example 648]	–	IC50 (DLD1 WT cells; 7-day CellTiter-Glo): ≥ 10 µM; IC50 (DLD1 BRCA2 (−/−) cells; 7-day CellTiter-Glo): 0.001 to 0.1 µM
0.001 to 0.1 µM	Cc1cc(-c2cc(Cl)ncc2OC(F)F)c(C(=O)Nc2nc3c(s2)CN(C(=O)c2nc(C(F)F)ccc2Cl)C3)cn1 [Example 922, 2′-chloro-N-(S-(3-chloro-6-(difluoromethyl)picolinoyl)-5,6-dihydro-4H-pyrrolo[3,4-d]thiazol-2-yl)-5′-(difluoromethoxy)-6-methyl-[4,4′-bipyridine]-3-carboxamide]	≥ 10 µM	–
0.001 to 0.1 µM	COc1cnc(Cl)cc1-c1cc(C)ncc1C(=O)Nc1nc2c(s1)CN(C(=O)[C@H]1CC[C@@H](OC(F)(F)F)CC1)C2 [Example 925]	5 to 10 µM	–
0.001 to 0.1 µM	COc1cnc(Cl)cc1-c1cc(C)ncc1C(=O)Nc1nc2c(s1)CN(C(=O)c1nc(OC)c(C(F)(F)F)cc1C)C2 [Example 987, 2′-chloro-5′-methoxy-N-(5-(6-methoxy-3-methyl-5-(trifluoromethyl)picolinoyl)-5,6-dihydro-4H-pyrrolo[3,4-d]thiazol-2-yl)-6-methyl-[4,4′-bipyridine]-3-carboxamide]	≥ 10 µM	–
0.001 to 0.1 µM	COc1cnc(C)c(F)c1-c1cc(C)ncc1C(=O)Nc1nc2c(s1)CN(C(=O)c1ccc(C(F)(F)F)nc1OC)C2 [Example 1029, 3′-fluoro-5′-methoxy-N-(5-(2-methoxy-6-(trifluoromethyl)nicotinoyl)-5,6-dihydro-4H-pyrrolo[3,4-d]thiazol-2-yl)-2′,6-dimethyl-[4,4′-bipyridine]-3-carboxamide]	≥ 10 µM	–
–	2′-Chloro-5′-methoxy-6-methyl-N-(5-(4-methyl-6-(trifluoromethoxy)nicotinoyl)-5,6-dihydro-4H-pyrrolo[3,4-d]thiazol-2-yl)-[4,4′-bipyridine]-3-carboxamide [Example 561]	–	IC50 (DLD1 WT cells; 7-day CellTiter-Glo): ≥ 10 µM; IC50 (DLD1 BRCA2 (−/−) cells; 7-day CellTiter-Glo): 0.001 to 0.1 µM
0.001 to 0.1 µM	COc1cc(C(F)(F)F)ncc1C(=O)N1Cc2nc(NC(=O)c3cnc(C)cc3-c3cc(Cl)ncc3OC)sc2C1 [Example 974, 2′-chloro-5′-methoxy-N-(5-(4-methoxy-6-(trifluoromethyl)nicotinoyl)-5,6-dihydro-4H-pyrrolo[3,4-d]thiazol-2-yl)-6-methyl-[4,4′-bipyridine]-3-carboxamide]	≥ 10 µM	–
0.001 to 0.1 µM	COc1cnc(Cl)cc1-c1cc(C)ncc1C(=O)Nc1nc2c(s1)CN(C(=O)c1ccc(C#N)cn1)C2 [Example 578]	5 to 10 µM	–
0.001 to 0.1 µM	COc1ncc(C(F)(F)F)c(C(=O)N2Cc3nc(NC(=O)c4cnc(C)cc4-c4cc(Cl)ncc4OC)sc3C2)n1 [Example 994, 2′-chloro-5′-methoxy-N-(5-(2-methoxy-5-(trifluoromethyl)pyrimidine-4-carbonyl)-5,6-dihydro-4H-pyrrolo[3,4-d]thiazol-2-yl)-6-methyl-[4,4′-bipyridine]-3-carboxamide]	≥ 10 µM	–
0.001 to 0.1 µM	COc1cnc(Cl)cc1-c1cc(C)ncc1C(=O)Nc1nc2c(s1)CN(C(=O)c1nc(C)c(OC(F)F)cc1C)C2 [Example 1027, 2′-chloro-N-(5-(5-(difluoromethoxy)-3,6-dimethylpicolinoyl)-5,6-dihydro-4H-pyrrolo[3,4-d]thiazol-2-yl)-5′-methoxy-6-methyl-[4,4′-bipyridine]-3-carboxamide]	≥ 10 µM	–
0.001 to 0.1 µM	Cc1cc(-c2cc(Cl)ncc2OC(F)F)c(C(=O)Nc2nc3c(s2)CN(C(=O)c2ncc(Cl)cn2)C3)cn1 [Example 910, 2′-chloro-N-(5-(5-chloropyrimidine-2-carbonyl)-5,6-dihydro-4H-pyrrolo[3,4-d]thiazol-2-yl)-5′-(difluoromethoxy)-6-methyl-[4,4′-bipyridine]-3-carboxamide]	≥ 10 µM	–
0.001 to 0.1 µM	COc1cnc(Cl)cc1-c1cc(C)ncc1C(=O)Nc1nc2c(s1)CN(C(=O)c1cnc(C(F)(F)F)cc1Cl)C2 [Example 973, 2′-chloro-N-(5-(4-chloro-6-(trifluoromethyl)nicotinoyl)-5,6-dihydro-4H-pyrrolo[3,4-d]thiazol-2-yl)-5′-methoxy-6-methyl-[4,4′-bipyridine]-3-carboxamide]	≥ 10 µM	–
0.001 to 0.1 µM	COc1cnc(Cl)cc1-c1cc(C)ncc1C(=O)Nc1nc2c(s1)CN(C(=O)c1nc(C)c(C(F)F)cc1F)C2 [Example 621]	≥ 10 µM	–
0.001 to 0.1 µM	COc1cnc(Cl)cc1-c1cc(C)ncc1C(=O)Nc1nc2c(s1)CN(C(=O)c1nc(C(F)F)cnc1OC)C2 [Example 468]	–	IC50 ([1]; POLθ ATPase, ADP-Glo): 1 to 15 nM
–	2′-Chloro-N-(5-(6-chloro-4-methylpicolinoyl)-5,6-dihydro-4H-pyrrolo[3,4-d]thiazol-2-yl)-5′-methoxy-6-methyl-[4,4′-bipyridine]-3-carboxamide [Example 390]	–	IC50 (DLD1 BRCA2 (−/−) cells; 7-day CellTiter-Glo): 0.001 to 0.1 µM; IC50 ([1]; POLθ ATPase, ADP-Glo): 1 to 15 nM
–	N-(5-(benzo[d]oxazole-2-carbonyl)-5,6-dihydro-4H-pyrrolo[3,4-d]thiazol-2-yl)-2′-chloro-5′-methoxy-6-methyl-[4,4′-bipyridine]-3-carboxamide [Example 615]	–	IC50 (DLD1 WT cells; 7-day CellTiter-Glo): ≥ 10 µM
–	CCc1c(Cl)c(C(=O)N2Cc3nc(NC(=O)c4cnc(C)cc4-c4cc(Cl)ncc4OC)sc3C2)nn1C [Example 70, 2′-chloro-N-(5-(4-chloro-5-ethyl-1-methyl-1H-pyrazole-3-carbonyl)-5,6-dihydro-4H-pyrrolo[3,4-d]thiazol-2-yl)-5′-methoxy-6-methyl-[4,4′-bipyridine]-3-carboxamide]	–	IC50 (DLD1 BRCA2 (−/−) cells; [3]): 0.001 to 0.1 µM; IC50 [1]: 1 to 15 nM
–	2′-chloro-5′-methoxy-6-methyl-N-(5-(thiazole-2-carbonyl)-5,6-dihydro-4H-pyrrolo[3,4-d]thiazol-2-yl)-[4,4′-bipyridine]-3-carboxamide [Example 608]	–	IC50 (DLD1 WT cells; 7-day CellTiter-Glo): ≥ 10 µM
–	CCc1nn(C)c(C(=O)N2Cc3nc(NC(=O)c4cnc(C)cc4-c4cc(Cl)ncc4OC)sc3C2)c1Cl [Example 56, 2′-chloro-N-(5-(4-chloro-3-ethyl-1-methyl-1H-pyrazole-5-carbonyl)-5,6-dihydro-4H-pyrrolo[3,4-d]thiazol-2-yl)-5′-methoxy-6-methyl-[4,4′-bipyridine]-3-carboxamide]	–	IC50 (DLD1 BRCA2 (−/−) cells; [3]): 0.001 to 0.1 µM; IC50 [1]: 1 to 15 nM
–	2′-Chloro-5′-methoxy-6-methyl-N-(5-(3-methylpyrazine-2-carbonyl)-5,6-dihydro-4H-pyrrolo[3,4-d]thiazol-2-yl)-[4,4′-bipyridine]-3-carboxamide [Example 412]	–	IC50 (DLD1 WT cells; 7-day viability): ≥ 10 µM; IC50 [1]: 1 to 15 nM
–	COc1cnc(Cl)cc1-c1cc(C)ncc1C(=O)Nc1nc2c(s1)CN(C(=O)c1c3c(nn1C)CCC3)C2 [Example 54, 2′-chloro-5′-methoxy-6-methyl-N-(5-(2-methyl-2,4,5,6-tetrahydrocyclopenta[c]pyrazole-3-carbonyl)-5,6-dihydro-4H-pyrrolo[3,4-d]thiazol-2-yl)-[4,4′-bipyridine]-3-carboxamide]	–	IC50 (DLD1 BRCA2 (−/−) cells; [3]): 0.001 to 0.1 µM; IC50 [1]: 1 to 15 nM
